Data: patent US20260137706A1, “METHODS OF TREATING INFLAMMATORY DISEASES” (INTERLINE THERAPEUTICS, INC., priority 2023, published 2026)

Legend:
[1] = biological target: T1, binding of His-XIAP(BIR2)-avi fusion protein to GST-RIPK2 fusion protein (RIPK2/XIAP) (Homo sapiens, UniProt O43353); experiment: RIPK2-XIAP binding competition PPI assay (TR-FRET); details: RIPK2/XIAP binding competition PPI assay; for Emax: Amax, read-out: PPI Amax bin; for IC50: read-out: PPI IC50 bin
T1 construct: made in house; host or cells: baculovirus infected Sf9 cells
T1 sequence (O43353 1-310 limits assumed): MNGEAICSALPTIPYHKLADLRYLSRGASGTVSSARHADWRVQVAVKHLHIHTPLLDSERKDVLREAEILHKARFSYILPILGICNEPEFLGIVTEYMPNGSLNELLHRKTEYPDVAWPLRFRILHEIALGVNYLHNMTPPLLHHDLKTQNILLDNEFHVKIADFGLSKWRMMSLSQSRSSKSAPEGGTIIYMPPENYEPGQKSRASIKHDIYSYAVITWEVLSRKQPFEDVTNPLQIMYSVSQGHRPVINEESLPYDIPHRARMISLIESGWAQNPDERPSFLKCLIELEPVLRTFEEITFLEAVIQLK
Procedure, shortened: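 Compounds (in DMSO, 100-fold stock) incubated 120 min at 23 °C with 1 nM GST-RIPK2 (aa 1-310) and 25 nM His-XIAP(BIR2 aa 152-231)-avi, plus anti-His-XL665 and anti-GST-Tb, in pH 7.5 Tris buffer. Read-out: 665/520 nm emission ratio. Normalized to no-inhibitor (0%) and 50 nM GSK583 (−100%); Amax binned A–D.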

[2] = test system: NF-κB pathway (SEAP) in THP1-Dual cells; experiment: THP-1 Dual cell SEAP assay (L18-MDP stimulated); format: cell-based; details: Homo sapiens, THP1-Dual, read-out: NF-κB THP1 IC50 bin
Procedure, shortened: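 IC50 values derive from non-linear regression of % inhibition, calculated against DMSO/L18-MDP-treated wells after media-only subtraction. NF-κB SEAP activity was read at OD 620-655 nm (QUANTI-Blue, 2 h, 37 °C) from supernatants of THP1-Dual cells. Cells had been compound-treated 30 min before overnight (20-24 h) stimulation with 10 ng/mL final L18-MDP.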

[3] = biological target: T2, GST-RIPK2 fusion protein (human RIPK2, amino acids 1-310) (Homo sapiens, UniProt O43353); experiment: RIPK2 binding competition assay (TR-FRET, Tracer 199 displacement); details: 10 nM Tracer 199, 1 nM GST-RIPK2, read-out: RIPK2 IC50
T2 construct: made in house; host or cells: baculovirus infected Sf9 cells
T2 sequence (O43353 1-310): as the sequence (O43353 1-310 limits assumed) above
Procedure, shortened: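 IC50 derived from the TR-FRET emission ratio (665/620 nm, 337 nm excitation), normalized with no-inhibitor and no-enzyme controls. Incubation 45 min at 22 °C, pH 7.5 Tris buffer, with final 10 nM tracer, 1 nM Sf9-expressed GST-RIPK2 fragment (aa 1-310) and 0.5 nM Tb-labelled anti-GST.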

Row | Structure (SMILES) | Emax [1] [%] | IC50 [1] [µM] | IC50 [2] [µM] | IC50 [3] [µM]
1 | COc1cc2ncc(-c3cc(F)c(OC)c(NS(=O)(=O)C4CCC4)c3)n2cc1S(=O)(=O)C(C)(C)C [Example 145, N-(5-(6-(tert-butylsulfonyl)-7-methoxyimidazo[1,2-a]pyridin-3-yl)-3-fluoro-2-methoxyphenyl)cyclobutanesulfonamide] | > 80 | < 0.001 | < 0.05 | < 0.001
2 | CC(C)(C)S(=O)(=O)c1cn2c(-c3ccc4[nH]ccc4c3)cnc2cc1OCCO [Example 206, 2-((6-(tert-butylsulfonyl)-3-(1H-indol-5-yl)imidazo[1,2-a]pyridin-7-yl)oxy)ethan-1-ol] | 55 to 80 | < 0.001 | 0.05 to 0.25 | 0.001 to 0.0025
3 | COc1cn2ncc(-c3cc(F)c(N)nc3F)c2nc1N1C(=O)OCC1(C)C [Example 116, 3-(3-(6-amino-2,5-difluoropyridin-3-yl)-6-methoxypyrazolo[1,5-a]pyrimidin-5-yl)-4,4-dimethyloxazolidin-2-one] | 55 to 80 | > 0.02 | > 1 | > 0.02
4 | COc1cc2ncc(-c3cc(F)c(N)nc3F)n2cc1S(=O)(=O)C1(C)CC1 [Example 68, 3,6-difluoro-5-(7-methoxy-6-((1-methylcyclopropyl)sulfonyl)imidazo[1,2-a]pyridin-3-yl)pyridin-2-amine] | > 80 | > 0.02 | > 1 | > 0.02
5 | CC1(COc2cc3ncc(-c4cc(F)c(N)nc4F)n3cc2S(=O)(=O)C(C)(C)C)COC1 [Example 26, 5-(6-(tert-butylsulfonyl)-7-((3-methyloxetan-3-yl)methoxy)imidazo[1,2-a]pyridin-3-yl)-3,6-difluoropyridin-2-amine] | > 80 | 0.0025 to 0.02 | 0.05 to 0.25 | 0.001 to 0.0025
6 | COc1cc2ncc(-c3cccc(NS(=O)(=O)C4CCC4)c3)n2cc1S(=O)(=O)C(C)(C)C [Example 152, N-(3-(6-(tert-butylsulfonyl)-7-methoxyimidazo[1,2-a]pyridin-3-yl)phenyl)cyclobutanesulfonamide] | > 80 | 0.0025 to 0.02 | 0.25 to 1 | 0.0025 to 0.02
7 | COc1cc2ncc(-c3ccc4oc(N)nc4c3)n2cc1S(=O)(=O)C(C)(C)C [Example 104, 5-(6-(tert-butylsulfonyl)-7-methoxyimidazo[1,2-a]pyridin-3-yl)benzo[d]oxazol-2-amine] | 30 to 55 | > 0.02 | > 1 | > 0.02
8 | C[C@@H](O)COc1cc2ncc(-c3ccc(N)nc3F)n2cc1S(=O)(=O)C(C)(C)C [Example 250, (R)-1-((3-(6-amino-2-fluoropyridin-3-yl)-6-(tert-butylsulfonyl)imidazo [1,2-a]pyridin-7-yl)oxy)propan-2-ol] | > 80 | > 0.02 | > 1 | 0.0025 to 0.02
9 | C[C@H](CO)COc1cn2ncc(-c3cc(F)c(N)nc3F)c2cc1S(=O)(=O)C(C)(C)C [Example 195, (R)-3-((3-(6-amino-2,5-difluoropyridin-3-yl)-5-(tert-butylsulfonyl)pyrazolo [1,5-a]pyridin-6-yl)oxy)-2-methylpropan-1-ol] | > 80 | < 0.001 | < 0.05 | < 0.001
10 | Cc1c(-c2cnc3cc(OCCO)c(S(=O)(=O)C(C)(C)C)cn23)cnc(N)c1F [Example 50, 2-((3-(6-amino-5-fluoro-4-methylpyridin-3-yl)-6-(tert-butylsulfonyl)imidazo[1,2-a]pyridin-7-yl)oxy)ethan-1-ol] | 55 to 80 | > 0.02 | > 1 | > 0.02
11 | COc1cc2ncc(-c3ccc4sc(N)nc4c3)n2cc1S(=O)(=O)C(C)(C)C [Example 105, 5-(6-(tert-butylsulfonyl)-7-methoxyimidazo[1,2-a]pyridin-3-yl)benzo[d]thiazol-2-amine] | 30 to 55 | > 0.02 | > 1 | > 0.02
12 | CC(C)(C)S(=O)(=O)c1cn2c(-c3cc(F)c(N)nc3F)cnc2cc1OCCN1CCOC1=O [Example 29, 3-(2-((3-(6-amino-2,5-difluoropyridin-3-yl)-6-(tert-butylsulfonyl)imidazo[1,2-a]pyridin-7-yl)oxy)ethyl)oxazolidin-2-one] | > 80 | 0.0025 to 0.02 | 0.25 to 1 | 0.0025 to 0.02
13 | CC(C)(C)C(C)(O)c1cn2c(-c3cc(F)c(N)nc3F)cnc2cc1OCCO (centres unmarked) [Example 189, 2-(3-(6-amino-2,5-difluoropyridin-3-yl)-7-(2-hydroxyethoxy)imidazo[1,2-a]pyridin-6-yl)-3,3-dimethylbutan-2-ol] | – | > 0.02 | > 1 | > 0.02
14 | COc1cc2ncc(-c3cc(F)c(OC)c4[nH]c(C)nc34)n2cc1S(=O)(=O)C(C)(C)C [Example 118, 4-(6-(tert-butylsulfonyl)-7-methoxyimidazo[1,2-a]pyridin-3-yl)-6-fluoro-7-methoxy-2-methyl-1H-benzo[d]imidazole] | 55 to 80 | < 0.001 | 0.05 to 0.25 | 0.001 to 0.0025
15 | CC(C)(CO)COc1cc2ncc(-c3cc(F)c(N)nc3F)n2cc1S(=O)(=O)C(C)(C)C [Example 47, 3-((3-(6-amino-2,5-difluoropyridin-3-yl)-6-(tert-butylsulfonyl)imidazo[1,2-a]pyridin-7-yl)oxy)-2,2-dimethylpropan-1-ol] | > 80 | 0.001 to 0.0025 | 0.05 to 0.25 | 0.001 to 0.0025
16 | COc1cc2ncc(-c3ccc4cnn(C)c4c3)n2cc1S(=O)(=O)C(C)(C)C [Example 106, 6-(6-(tert-butylsulfonyl)-7-methoxyimidazo[1,2-a]pyridin-3-yl)-1-methyl-1H-indazole] | < 30 | > 0.02 | > 1 | > 0.02
17 | COc1cc2ncc(-c3cc(F)c(OC)c(NS(=O)(=O)c4cnn(C)c4)c3)n2cc1C1(F)CCN(C)CC1 [Example 234, N-(3-fluoro-5-(6-(4-fluoro-1-methylpiperidin-4-yl)-7-methoxyimidazo[1,2-a]pyridin-3-yl)-2-methoxyphenyl)-1-methyl-1H-pyrazole-4-sulfonamide] | > 80 | < 0.001 | < 0.05 | < 0.001
18 | COc1cn2ncc(-c3cc(F)c(OC)c(NS(=O)(=O)C4(CO)CC4)c3)c2cc1S(=O)(=O)C(C)(C)C [Example 181, N-(5-(5-(tert-butylsulfonyl)-6-methoxypyrazolo[1,5-a]pyridin-3-yl)-3-fluoro-2-methoxyphenyl)-1-(hydroxymethyl)cyclopropane-1-sulfonamide] | > 80 | < 0.001 | < 0.05 | < 0.001
19 | COc1cc2ncc(-c3cnn4c(C)c(C)ccc34)n2cc1S(=O)(=O)C(C)(C)C [Example 107, 6-(tert-butylsulfonyl)-3-(6,7-dimethylpyrazolo[1,5-a]pyridin-3-yl)-7-methoxyimidazo[1,2-a]pyridine] | 55 to 80 | > 0.02 | > 1 | > 0.02
20 | CC(C)(C)S(=O)(=O)c1cn2c(-c3ccc4ccnn4c3)cnc2cc1OCCO [Example 209, 2-((6-(tert-butylsulfonyl)-3-(pyrazolo[1,5-a]pyridin-6-yl)imidazo[1,2-a]pyridin-7-yl)oxy)ethan-1-ol] | 30 to 55 | > 0.02 | > 1 | > 0.02
21 | CC(C)(C)S(=O)(=O)c1cn2c(-c3cnc4[nH]cc(Cl)c4c3)cnc2cc1OCCO [Example 219, 2-((6-(tert-butylsulfonyl)-3-(3-chloro-1H-pyrrolo[2,3-b]pyridin-5-yl)imidazo[1,2-a]pyridin-7-yl)oxy)ethan-1-ol] | > 80 | 0.001 to 0.0025 | 0.05 to 0.25 | 0.001 to 0.0025
22 | Cn1ccc(COc2cc3ncc(-c4cc(F)c(N)nc4F)n3cc2S(=O)(=O)C(C)(C)C)n1 [Example 25, 5-(6-(tert-butylsulfonyl)-7-((1-methyl-1H-pyrazol-3-yl)methoxy)imidazo[1,2-a]pyridin-3-yl)-3,6-difluoropyridin-2-amine] | > 80 | 0.0025 to 0.02 | 0.25 to 1 | 0.0025 to 0.02
23 | COc1cc2ncc(-c3ccc4c(C)nn(C)c4c3)n2cc1S(=O)(=O)C(C)(C)C [Example 108, 6-(6-(tert-butylsulfonyl)-7-methoxyimidazo[1,2-a]pyridin-3-yl)-1,3-dimethyl-1H-indazole] | < 30 | > 0.02 | > 1 | > 0.02
24 | COc1cn2ncc(-c3cc(F)c(OC)c(NS(=O)(=O)c4cnn(C)c4)c3)c2nc1OC [Example 211, N-(5-(5,6-dimethoxypyrazolo[1,5-a]pyrimidin-3-yl)-3-fluoro-2-methoxyphenyl)-1-methyl-1H-pyrazole-4-sulfonamide] | > 80 | 0.0025 to 0.02 | > 1 | 0.0025 to 0.02
